In patent publication US11951167B2, “Targeted liposomes” (GEORGETOWN UNIVERSITY, priority 2012, dated 2024):
pIC50: −log10 of the molar value. Like-named read-outs stand apart in the source and are kept apart here.

Columns and labels:
[1] = tested on: intracranial U87MG-luc2 glioblastoma tumor xenografts; assay: Efficacy in intracranial GBM xenografts (MRI, BLI, body weight, survival)
Experimental: Intra cranial GBM tumors were induced in 5-6 week old female athymic nude mice by stereotaxic inoculation of U87MG-luc2 cells that stably carry the luciferase gene. Seven to ten days post-inoculation, tumors were evaluated by bioluminescence using Xenogen IVIS in vivo imaging system (Caliper Life Sciences) and mice were evenly divided into treatment groups. Treatment was initiated on the day of randomization (day 0). Animals were injected intravenously (i.v.) via the tail vein with 5 mg/kg (per injection per mouse) of TMZ alone or TfRscFv-targeted TMZ cationic liposome complex (scL-TMZ). […] Mice were injected twice per week with each reagent for 5 weeks. Control animals (Vehicle) received Liposome only (no TMZ, no TfRscFv).
Assessment of in vivo efficacy: The in vivo response to treatment was evaluated based upon the changes in tumor growth, body weight change, and overall survival. Tumor growth was monitored by bioluminescence imaging (BLI) using Xenogen IVIS in vivo imaging system before, during, and after the treatments at the indicated date. […] The bioluminescence intensity of the brain tumors, a measure of tumor size/growth, was measured and compared between treatment groups. Half-way through treatment (after mice received 3 weeks of treatment with each reagent), all animals were scanned with magnetic resonance imaging (MRI) to evaluate the brain tumor. […] Tumor volume was calculated from the MRI scan and compared between treatment groups. Body weight change was monitored weekly. Overall survival was recorded and plotted by Kaplan-Meier method.
In a second experiment, different doses/number of injections per week of scL-TMZ, prepared as described herein, were compared. Groups of mice bearing U87MG-luc2 glioblastoma intracranial xenograft tumors were iv tail vein injected for 5 weeks with scL-TMZ at: 2.5 mg/kg one injection per week; 5 mg/kg one injection per week; or 5 mg/kg two injections per week and survival determined.

[2] = tested on: U251 cells; assay: XTT cell viability, liposome TMZ vs free TMZ; type: cell-based, human; settings: at 16-46.3 μM TMZ
Experimental: Studies were carried out to compare the efficacy of standard free (unencapsulated) TMZ; and unliganded TMZ-containing liposomes (Lip-TMZ) The Lip-TMZ was prepared as described above in Example 1 using a liposome concentration of 2 mM. The zeta potentials of the Lip-TMZ molecules ranged from 35.6-40.1 mV. The TMZ concentration used was varied from 1 to about 250 uM. The ratios of Liposome to TMZ was 0.5:1, 1:1 or 2:1 (molar ratio).
Human brain tumor derived U251 cells were plated in triplicate at 2×10^3 per well in a 96-well plate. Following overnight incubation, the medium was replaced with serum-free medium, overlaid with 100 μL of indicated concentrations of either Lip-TMZ, or free TMZ, incubated for 5 h, and then supplemented with fetal bovine serum. After incubation for an additional 91 h, cell viability was determined by the XTT assay as described previously (Rait A, Pirollo K F, Rait V, et al. Inhibitory effects of the combination of HER-2 antisense oligonucleotide and chemotherapeutic agents used for the treatment of human breast cancer. Cancer Gene Ther 2001; 8:728-39.). Formazan absorbance, which correlates to cell viability, was measured at 450 nm using a microplate reader (Bio-Rad, Hercules, Calif.).

[3] = tested on: LN-18 cells; assay: XTT sensitization of TMZ resistant cells by scL-p53; type: cell-based, human; settings: XTT 72 h after TMZ addition
Experimental: (§1) However, as only a subset of brain tumor patients respond to TMZ it was more critical to assess the ability of scL-p53 to sensitize TMZ resistant tumors to this chemotherapeutic agent. Thus, to assess the ability of scL delivered wtp53 to sensitize TMZ resistant brain tumor cells to this first-line chemotherapeutic agent, human brain tumor derived LN-18 and T98G cells were treated with TMZ alone, or the combination of TMZ plus scL-p53 (FIG. 23). As a control, cells were also treated with the combination of TMZ and the scL delivery system carrying the same vector used to construct the pSCMVp53 plasmid, but without the p53 insert (scL-vec). The cells were plated in a 96-well plate and treated 24 hours later with scL-p53 or scL-vec. 24 hours post-transfection, the TMZ was added in increasing concentrations. […] As shown in FIG. 23 with LN-18 cells, after transfection with scL-p53 these TMZ resistant cells are now responding to even very low doses of TMZ. […] With the T98G cells (FIG. 23), although not as responsive as to TMZ as LN-18 after treatment with scL-p53, these highly resistant cells are also sensitized to the killing effects of this drug.

[4] = tested on: T98G cells; assay: as above; type: cell-based, human; settings: XTT 72 h after TMZ addition
Experimental: as §1

[5] = tested on: glioblastoma multiforme / anaplastic astrocytoma; settings: cited from earlier work
[6] = tested on: T98G cells; settings: TMZ resistant T98G, XTT
Excerpt: The in vitro cell killing ability of the scL-TMZ was compared to free, unencapsulated TMZ in TMZ resistant human brain tumor cell line T98G using the XTT assay.

[7] = tested on: U87MG-Luc xenograft brain tumors; assay: Intracranial tumor growth (BLI, MRI), scL-p53 plus TMZ; type: in vivo, nude mice; settings: TMZ 5.0 mg/kg, scL-p53 30 ug DNA/mouse, i.v. 2x/week, 10 injections
Experimental: An experiment was performed to examine tumor growth inhibition induced by the sensitization of IC brain tumors to TMZ by systemic administration of scL-p53 prepared as described in U.S. Pat. No. 7,780,882. U87MG-Luc xenograft brain tumors were induced in nude mice by intracranially inoculating U87MG-luc cells. This cell line, obtained from Caliper Life Sciences, has been modified to stably express the Luciferase gene. 10 days post-inoculation, tumor-bearing animals were i.v. tail vein injected with TMZ alone (5.0 mg/kg/injection), scL-p53 alone (30 ug DNA/mouse/injection) or TMZ in combination with scL-p53. As a control, one group received PBS (vehicle). All i.v. injections were administered 2×/week to a total of 10 injections. To assess tumor response, bioluminescence imaging (BLI) was performed using IVIS® Imaging System's Xenogen. FIG. 24 is a comparison of in vivo anti-tumor efficacy of the various groups. Bioluminescence signals which correlate to tumor size are shown in a color map. Red color (at the top of the scale bar): the stronger signal, Violet color (at the bottom of the scale bar): the weaker signal. […] The horizontal bar indicates the duration of treatment (Last treatment=Day 24).
To confirm the bioluminescence findings, the mice were also imaged by MRI, without contrast agent, before and after the mice received 3 weeks of treatment. […]

[8] = 5 mg/kg i.v. twice per week for 5 weeks

## Cn1nnc2c(C(N)=O)ncn2c1=O [TMZ, temozolomide]
[1]; [8]
  long term survival (Kaplan-Meier): extended the lifespan
  time tumor growth was controlled (BLI): ~2.5 weeks
[1]; 5 mg/kg i.v. twice per week, after 3 weeks (6 injections)
  tumor growth by MRI: some tumor growth inhibition
[2]
  cell killing effect: virtually no cell killing effect
[3]
  dose of TMZ until which no significant cell death is observed: ~1000 µM
[4]
  pIC50: ~2.70
[5]; human, in vivo
  AA patients who do not benefit from TMZ: 50%
  GBM patients who do not benefit from TMZ: 60-75%
[5]; subset of GBM patients
  median increase in survival compared to radiation alone: 2.5 months
[6]
  pIC50: < 3.00
[7]
  IC tumor growth during treatment (BLI): some minimal effect
